From patent US20120114636A1, “LOW MOLECULAR WEIGHT CYCLIN E (LMW-E) AS A BIOMARKER FOR PERSONALIZATION OF CANCER THERAPIES” (The Board of Regents of the University of Texas System, priority 2009, published 2012)
Several values for one entry are separate records, joined by “and”; a condition that tells them apart may be missing. Equal entries are not always repeated.

How the values were obtained:
Format in all cases: cell-based, human
MCF-7/Ac1 cells [1] = assay: Western blot of CDK2, phospho-CDK2, cyclin E, pRb
Protocol: (§1) FIG. 28. Effect of increasing concentrations of letrozole in the presence of 25 nM AD on CDK2 kinase activity, activated CDK2 and Rb phosphorylation of MCF7/Ac1 human breast cancer cells. MCF-7/Ac1 cells were treated with the indicated concentrations of letrozole and AD for 3 days. CDK2 kinase assays were performed by immunoprecipitating equal amounts of cell lysate (250 μg) with monoclonal antibodies to CDK2 (D12, sc-6248) coupled to protein G beads, using histone H1 as substrate. […] The same cell lysates were subjected to western blot analysis (50 μg of protein) with the indicated antibodies.
(§2) Western blot analysis. Cell lysates were prepared and subjected to western blot analysis as described previously (Akli et al., 2004). Briefly, 50 μg of protein were subjected to electrophoresis on SDS-PAGE and transferred to Immobilon P overnight at 4° C. at […] constant voltage. The blots were blocked overnight at 4° C. in BLOTTO [5% nonfat dried milk in 20 mM Tris, 137 mM NaCl, and 0.05% Tween (pH 7.6)]. After being washed, the blots were incubated in primary antibodies for 3 h. Primary antibodies used were cyclin E (HE-12; Santa Cruz Biotechnology), p21 (0P64; Oncogene Research Products, Boston, Mass.), p27 (K25020; BD Biosciences-Transduction Laboratories, Lexington, Ky.), cyclin-dependent kinase 2 (CDK2; Transduction Laboratories), and actin (Chemicon International, Inc., Temecula, Calif.). Blots were then incubated with goat anti-mouse or anti-rabbit immunoglobulin-horseradish peroxidase conjugate at a dilution of 1:5000 in BLOTTO for 1 h and finally washed and developed by using the Renaissance chemiluminescence system as directed by the manufacturer (Perkin-Elmer Life Sciences, Inc., Boston, Mass.). Western blots were quantitated by densitometric analysis using IPLab Gel software (Scientific Image Processing, Vienna, Va.). Densitometric values of actin were used to standardize for equal protein loading. These values were introduced into the software Graph-Pad Prism version 4.0 (GraphPad Software, Inc., San Diego, Calif.) for statistical analysis.
(§3) MCF-7/Ac1 cells were treated with the indicated concentrations of letrozole and AD for 3 days. Cyclin E kinase assays were performed by immunoprecipitating equal amounts of cell lysate (250 μg) with monoclonal antibodies to cyclin E coupled to protein A beads, using histone H1 as substrate. […] The same cell lysates were subjected to western blot analysis (50 μg of protein) with the indicated antibodies. […] The same cell lysates were first immunoprecipitated with cyclin E followed by western blot for p21 and p27. […] The same cell lysates were first immunoprecipitated with CDK2 followed by western blot for p21 and p27. The levels of proteins were measured by densitometric scanning of the corresponding bands and normalized using actin values. The values indicated at the bottom were compared to the values obtained with untreated cells.

MCF-7/Ac1 cells [2] = assay: Sequential AD/letrozole then roscovitine treatment: cell number and CDK2 western blot; settings: LMW cyclin E overexpressing cells
Protocol: Medium alone or medium plus DMSO were used as controls. A schematic of the treatment strategy is depicted in FIG. 25A. At the conclusion of the treatment, cells were enumerated and subjected to western blot analysis with CDK2 (total) and phospho-CDK2 antibodies.
Cells were then infected with the indicated adenoviruses (at 4000 m.o.i.) 24 hours before drug treatment.

[3] = tested on: CDK2 protein in MCF-7/Ac1 cells; assay: Western blot of CDK2 protein levels in adenovirus-infected cells; settings: letrozole
Protocol: as §2
MCF-7/Ac1 cells were cultured in IMEM with 10% charcoal-stripped serum medium (CSSM) without phenol red and with 600 μg/ml of G418 for 4 days before plating. […] Cells were then infected with the indicated adenoviruses (at 4000 m.o.i.) 24 hours before drug treatment.

[4] = tested on: CDK2-associated kinase activity in MCF-7/Ac1 cells; assay: CDK2-associated kinase assay (histone H1); settings: with 25 nM AD, 3 days
Protocol: as §1

[5] = tested on: cyclin E-associated kinase activity in MCF-7/Ac1 cells; assay: Cyclin E-associated kinase assay (histone H1); settings: with 25 nM AD, 3 days
Protocol: (§4) Immunoprecipitation and Immunoblotting. Two hundred fifty μg of cell extracts were used per immunoprecipitation with polyclonal antibody to cyclin E or polyclonal antibody to CDK2, coupled to protein A beads. After being washed, the immunoprecipitates were subjected to electrophoresis in 13% gels, transferred to Immobolin P, blocked, and incubated with the indicated antibodies as already described.
as §3

[6] = tested on: cyclin E and CDK2 complexes in MCF-7/Ac1 cells; assay: Immunoprecipitation of cyclin E or CDK2 followed by western blot for p21 and p27
Protocol: as §4, §3

MCF-7/Ac1 cells [7] = assay: Cell cycle analysis by flow cytometry (PI); settings: letrozole with 25 nM AD, concentration not given
Protocol: Cell cycle analysis. MCF-7/Ac1 cells were cultured in estrogen-deprived media with or without 25 nM 4-androstenedione, and treated with different concentrations of aromatase inhibitors. Untreated and drug treated cells were collected 72 hours later for flow cytometry and lysates were prepared for western blot and kinase assays.
Flow cytometry analysis. Cells were pelleted and resuspended in 1.5 ml of PBS, then fixed in 3.5 ml of 95% ethanol overnight at −20° C. After being washed, the pellets were resuspended in a solution of PBS containing 10 μg/ml propidium iodide, 20 μg/ml RNase A, 0.5% Tween 20, and 0.5% BSA and incubated at 37° C. for 30 min. The profiles of cells in the G0-G1, S, and G2-M phases of the cell cycle were analyzed at the M. D. Anderson Cancer Center Cytometry Core Facility on a FACS Caliber machine equipped with Cellquest or ModFit software.
FIGS. 22A-22C show the effect of aromatase inhibitor treatment on proliferative response and cell cycle distribution of MCF-7/Ac1 cells. Cells were cultured in IMEM with 10% charcoal-stripped serum medium (CSSM) without phenol red and with 600 μg/ml of G418 for 4 days before plating. Cells (100,000) were seeded in 100 mm dishes and, 24 hrs later, were exposed for 3 days to the specific treatment. […] Cell growth is expressed as the percentage of the cells compared with the control cells (25 nM AD treated cells, 575,000 cells at day 3). Columns, mean of two to three experiments, each in triplicates; bars, S.D. *, P<0.05, when compared to cells only treated with 25 nM AD; n.s, not significant. CSSM, untreated cells cultured in charcoal-stripped serum medium without phenol red and with 600 μg/ml of G418.

N#Cc1ccc(C(c2ccc(C#N)cc2)n2cncn2)cc1 [letrozole]
cyclin E protein levels (MCF-7/Ac1 cells [1]; 0.5 μM letrozole with 25 nM AD): slightly decreased | effect on AD-induced increase in CDK2 protein levels (MCF-7/Ac1 cells [1]; increasing letrozole with 25 nM AD): blocked the increase in CDK2 protein levels in a dose dependent manner | phosphorylation of endogenous CDK2 substrate pRb (MCF-7/Ac1 cells [1]; letrozole with 25 nM AD): decreased phosphorylation | increase in AD-induced proliferation not prevented by letrozole (MCF-7/Ac1 cells [2]; AD plus 1 μM letrozole): 2.5 fold and 2.8 fold | phosphorylated/unphosphorylated CDK2 ratio (MCF-7/Ac1 cells [2]; AD plus letrozole): 134-234% | CDK2 protein levels ([3]; LMW cyclin E (T1, T2) overexpressing cells): did not drop following letrozole treatment | total CDK2 protein levels, percent of the level in untreated, uninfected cells ([3]; cyclin EL overexpressing cells): 50% | total CDK2 protein levels, percent of the level in uninfected cells ([3]; uninfected and LacZ infected cells): 10% | concentration that blocked the AD-induced increase in CDK2-associated kinase activity [4]: ≤ 0.125 µM | concentration that blocked the AD-induced increase in cyclin E-associated kinase activity [5]: ≤ 0.125 µM | p21 binding to both cyclin E and CDK2 ([6]; letrozole with 25 nM AD): slightly decreased | increase in p27 binding to both cyclin E and CDK2 over levels in AD treated cells ([6]; letrozole, dose-dependent, with 25 nM AD): up to 2 fold | cells in G0/G1 (MCF-7/Ac1 cells [7]): 61.2+/−1.5% | cells in S phase (MCF-7/Ac1 cells [7]): 13.1+/−2.3%
